Reference: patent US8329919B2, “Salt hydrates” (Novartis AG, priority 2002, dated 2012)
Several values for one entry are separate records, joined by “and”; a condition that tells them apart may be missing. Identical values can stand only once.

Assay: Thermogravimetry: weight loss, i.e. water loss, as a function of temperature (thermobalance TGS-2)
Type: physicochemical
Conditions: heating rate 10 K·min^−1, water-free N2 atmosphere
Method: Using thermogravimetry, in a water-free N2 atmosphere, the weight loss, i.e. the water loss for the tetrahydrate of the calcium salt of valsartan A1,Ca as a function of temperature, was measured at a heating rate of 10 K·min^−1. […]
Using thermogravimetry, in a water-free N2 atmosphere, the weight loss, i.e. the water loss for the trihydrate of the calcium salt of valsartan in the polymorphic form B1,Ca as a function of temperature, was measured at a heating rate of 10 K·min^−1.
(§1) Using thermogravimetry, in a water-free N2 atmosphere, the weight loss, i.e. the water loss for the trihydrate B2,Ca as a function of temperature, was measured at a heating rate of 10 K·min^−1. The results for the polymorph B2,Ca of the trihydrate of the calcium salt of valsartan are illustrated in table 4.
as §1, with “B3,Ca” for “B2,Ca”, “polymorphic form B3,Ca” for “polymorph B2,Ca”, “5.” for “4.”
Using thermogravimetry, in a water-free N2 atmosphere, the weight loss, i.e. the water loss for the di-(calcium salt of valsartan) pentahydrate D1,Ca as a function of temperature, was measured at a heating rate of 10 K·min^−1.
The instrument used for the calorimetric data is throughout a DSC Pyris 1 (Differential Scanning calorimeter) obtained from Perkin-Elmer Corp., Norwalk, Conn. USA. The measurements are performed with samples enclosed in a sealed gold specimen container with an internal free volume of ca. 22 microliters, with a sample weight of 2 to 4 mg and with a heating rate of Tr=10K·min^−1. […] The instrument used was a TGS-2 (Perkin-Elmer Corp., Norwalk, Conn. USA) and the measurement was performed in a water free atmosphere. The heating rate selected was 10 K·min^−1. The weight loss is illustrated in table 7.
The heating rate selected was 10K·min^−1.
Using thermogravimetry, in a water-free N2 atmosphere, the weight loss, i.e. the water loss for the tetrahydrate as a function of temperature, was measured at a heating rate of 10 K·min^−1. The results for the calcium salt of valsartan tetrahydrate A0,Ca are listed in the following: […]
Using thermogravimetry, in a water-free N2 atmosphere, the weight loss, i.e. the water loss for the tetrahydrate of the calcium salt of valsartan as a function of temperature, was measured at a heating rate of 10 K·min^−1.

Molecule | weight loss or water loss in % (temperature 25 °C) | weight loss or water loss in % (temperature 200 °C) | weight loss or water loss in % (temperature 50 °C) | weight loss or water loss in % (temperature 75 °C) | weight loss or water loss in % (temperature 100 °C) | weight loss or water loss in % (temperature 125 °C) | weight loss or water loss in % (temperature 150 °C) | weight loss or water loss in % (temperature 175 °C) | weight loss or water loss in % (temperature 225 °C) | weight loss or water loss in % (temperature 250 °C) | weight loss or water loss in % (temperature 275 °C) | further results
(S)—N-(1-carboxy-2-methyl-prop-1-yl)-N-pentanoyl-N-[2′-(1H-tetrazol-5-yl)-biphenyl-4-ylmethyl]-amine calcium salt trihydrate [B2,Ca] | 0% | 9.7% | – | – | – | – | – | – | – | – | – | weight loss or water loss in % (temperature 25 °C, calcium salt trihydrate, crystalline trihydrate B2,Ca polymorph): 0.1 ± 0.2%; weight loss or water loss in % (temperature 50 °C, calcium salt trihydrate, crystalline trihydrate B2,Ca polymorph): 0.9 ± 0.3%; weight loss or water loss in % (temperature 75 °C, calcium salt trihydrate, crystalline trihydrate B2,Ca polymorph): 2.2 ± 0.5%; weight loss or water loss in % (temperature 100 °C, calcium salt trihydrate, crystalline trihydrate B2,Ca polymorph): 5.8 ± 0.5%; weight loss or water loss in % (temperature 125 °C, calcium salt trihydrate, crystalline trihydrate B2,Ca polymorph): 8.9 ± 0.5%; weight loss or water loss in % (temperature 150 °C, calcium salt trihydrate, crystalline trihydrate B2,Ca polymorph): 9.9 ± 0.5%; weight loss or water loss in % (temperature 175 °C, calcium salt trihydrate, crystalline trihydrate B2,Ca polymorph): 10.2 ± 0.5%; weight loss or water loss in % (temperature 200 °C, calcium salt trihydrate, crystalline trihydrate B2,Ca polymorph): 10.3 ± 0.5%; weight loss or water loss in % (temperature 225 °C, calcium salt trihydrate, crystalline trihydrate B2,Ca polymorph): 10.5 ± 0.5%; weight loss or water loss in % (temperature 250 °C, calcium salt trihydrate, crystalline trihydrate B2,Ca polymorph): 10.5 ± 0.5%; weight loss or water loss in % (temperature 275 °C, calcium salt trihydrate, crystalline trihydrate B2,Ca polymorph): 10.8 ± 0.5%
CCCCC(=O)N(Cc1ccc(-c2ccccc2-c2nnn[nH]2)cc1)[C@H](C(=O)O)C(C)C [A1,Mg, (S)—N-(1-carboxy-2-methyl-prop-1-yl)-N-pentanoyl-N-[2′-(1H-tetrazol-5-yl)-biphenyl-4-ylmethyl]-amine] | 0.1 ± 0.1% and 0% | 17.1 ± 0.5% and 17.2% | 1.0 ± 0.3% and 0.9% | 6.8 ± 0.5% and 6.8% | 14.1 ± 0.5% and 14.3% | 15.6 ± 0.5% and 15.7% | 16.4 ± 0.5% and 16.5% | 16.9 ± 0.5% and 17.0% | 17.3 ± 0.5% and 17.4% | 17.6 ± 0.5% and 17.8% | 18.3 ± 0.5% and 18.3% | –
(S)—N-(1-carboxy-2-methyl-prop-1-yl)-N-pentanoyl-N-[2′-(1H-tetrazol-5-yl)-biphenyl-4-ylmethyl]-amine calcium salt trihydrate [B1,Ca] | – | 9.7% | – | – | – | – | – | – | – | – | – | weight loss or water loss in % (temperature 25 °C, calcium salt trihydrate): 0.4 ± 0.3% and 0.5%; weight loss or water loss in % (temperature 50 °C, calcium salt trihydrate): 2.0 ± 0.5% and 2.0%; weight loss or water loss in % (temperature 75 °C, calcium salt trihydrate): 4.0 ± 0.5% and 3.9%; weight loss or water loss in % (temperature 100 °C, calcium salt trihydrate): 6.3 ± 0.5% and 5.7%; weight loss or water loss in % (temperature 125 °C, calcium salt trihydrate): 8.5 ± 0.5% and 8.1%; weight loss or water loss in % (temperature 150 °C, calcium salt trihydrate): 9.5 ± 0.5% and 9.2%; weight loss or water loss in % (temperature 175 °C, calcium salt trihydrate): 9.7 ± 0.5% and 9.5%; weight loss or water loss in % (temperature 200 °C, calcium salt trihydrate): 9.9 ± 0.5%; weight loss or water loss in % (temperature 225 °C, calcium salt trihydrate): 9.9 ± 0.5% and 9.7%; weight loss or water loss in % (temperature 250 °C, calcium salt trihydrate): 10.0 ± 0.5% and 9.9%; weight loss or water loss in % (temperature 275 °C, calcium salt trihydrate): 10.3 ± 0.5% and 10.2%
(S)—N-(1-carboxy-2-methyl-prop-1-yl)-N-pentanoyl-N-[2′-(1H-tetrazol-5-yl)-biphenyl-4-ylmethyl]-amine calcium salt tetrahydrate [A1,Ca] | 1.1 ± 0.5% and 1.1% | 13.3 ± 0.5% and 13.3% | 3.3 ± 0.5% and 3.3% | 5.1 ± 0.5% and 5.1% | 9.6 ± 1.0% and 9.6% | 12.2 ± 0.5% and 12.1% | 12.9 ± 0.5% and 12.9% | 13.2 ± 0.5% and 13.2% | 13.4 ± 0.5% and 13.4% | 13.3 ± 0.5% and 13.3% | 13.7 ± 0.5% and 13.7% | –
CCCCC(=O)N(Cc1ccc(-c2ccccc2-c2nnn[nH]2)cc1)[C@H](C(=O)O)C(C)C [A2,Ca, (S)—N-(1-carboxy-2-methyl-prop-1-yl)-N-pentanoyl-N-[2′-(1H-tetrazol-5-yl)-biphenyl-4-ylmethyl]-amine] | 0 ± 0.3% and 0% | 12.7 ± 0.5% and 12.5% | 0.1 ± 0.3% and 0% | 0.5 ± 0.5% and 0% | 4.9 ± 0.5% and 4.7% | 11.2 ± 0.5% and 11.1% | 12.2 ± 0.5% and 11.9% | 12.6 ± 0.5% and 12.3% | 12.8 ± 0.5% and 12.6% | 12.8 ± 0.5% and 12.7% | 13.0 ± 0.5% and 13.3% | –
CCCCC(=O)N(Cc1ccc(-c2ccccc2-c2nn[n-]n2)cc1)[C@H](C(=O)[O-])C(C)C.CCCCC(=O)N(Cc1ccc(-c2ccccc2-c2nn[n-]n2)cc1)[C@H](C(=O)[O-])C(C)C.O.O.O.O.O.[Ca+2].[Ca+2] [D1,Ca, di-{calcium salt of (S)—N-(1-carboxy-2-methyl-prop-1-yl)-N-pentanoyl-N-[2′-(1H-tetrazol-5-yl)-biphenyl-4-ylmethyl]-amine}pentahydrate] | 0.1 ± 0.1% and 0.1% | 8.2 ± 0.5% and 8.0% | 1.3 ± 0.3% and 1.7% | 2.8 ± 0.5% and 3.3% | 5.1 ± 0.5% and 5.1% | 7.4 ± 0.5% and 7.1% | 8.0 ± 0.5% and 7.7% | 8.1 ± 0.5% and 7.9% | 8.2 ± 0.5% and 8.1% | 8.3 ± 0.5% and 8.3% | 8.6 ± 0.5% and 8.6% | –
(S)—N-(1-carboxy-2-methyl-prop-1-yl)-N-pentanoyl-N-[2′-(1H-tetrazol-5-yl)-biphenyl-4-ylmethyl]-amine calcium salt tetrahydrate [A0,Ca] | 0% | 12.9% | 0% | 0.5% | 3.5% | 10.2% | 12.4% | 12.8% | 13.0% | 13.3% | 13.2% | –
CCCCC(=O)N(Cc1ccc(-c2ccccc2-c2nnn[nH]2)cc1)[C@H](C(=O)O)C(C)C [F1,Ca, (S)—N-(1-carboxy-2-methyl-prop-1-yl)-N-pentanoyl-N-[2′-(1H-tetrazol-5-yl)-biphenyl-4-ylmethyl]-amine] | 0.6% | 8.6% | 3.0% | 5.6% | 7.1% | 7.9% | 8.3% | 8.6% | 8.8% | – | – | –
